Measurements reported in ChEMBL document CHEMBL1201862, “PubChem BioAssay data set” (2004).
Where a name gives a salt, the structure may show the parent alone. Active and inactive are the calls of the source.

Legend:
[1] = biological target: T1, Corticotropin-releasing factor receptor 2/Corticotropin-releasing factor-binding protein (Homo sapiens, UniProt P24387+Q13324); assay: activators of CRF receptor 2 with binding protein – uHTS hits, confirmation (AID 602473); assay type: functional; conditions: read-out: EC50_Mean
T1 sequence (Q13324 whole entry): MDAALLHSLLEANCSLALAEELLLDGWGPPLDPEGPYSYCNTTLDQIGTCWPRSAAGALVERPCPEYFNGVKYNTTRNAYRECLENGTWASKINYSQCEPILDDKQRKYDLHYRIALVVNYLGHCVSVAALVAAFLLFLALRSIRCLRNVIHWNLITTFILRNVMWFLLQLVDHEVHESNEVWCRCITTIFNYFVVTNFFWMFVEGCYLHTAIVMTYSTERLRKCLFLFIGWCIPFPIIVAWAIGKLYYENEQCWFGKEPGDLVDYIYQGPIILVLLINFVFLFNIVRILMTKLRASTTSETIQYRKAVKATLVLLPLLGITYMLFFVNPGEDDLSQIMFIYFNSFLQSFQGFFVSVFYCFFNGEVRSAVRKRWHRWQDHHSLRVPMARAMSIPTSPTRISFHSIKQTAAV
T1 sequence (P24387 whole entry): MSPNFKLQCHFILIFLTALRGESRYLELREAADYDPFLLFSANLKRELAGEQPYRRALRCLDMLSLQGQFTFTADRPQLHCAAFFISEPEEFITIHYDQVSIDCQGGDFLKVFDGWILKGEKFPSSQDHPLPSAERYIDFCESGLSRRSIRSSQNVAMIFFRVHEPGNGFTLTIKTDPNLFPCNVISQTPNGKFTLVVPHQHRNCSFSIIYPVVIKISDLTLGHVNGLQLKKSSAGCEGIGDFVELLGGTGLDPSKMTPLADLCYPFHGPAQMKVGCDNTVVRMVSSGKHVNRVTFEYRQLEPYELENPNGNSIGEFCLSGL

[2] = biological target: T1, Corticotropin-releasing factor receptor 2/Corticotropin-releasing factor-binding protein; assay: Dose Response confirmation of uHTS hits for small molecule antagonists of the CRF-binding protein and CRF-R2 receptor complex.; assay type: functional; conditions: read-out: IC50_Mean
[3] = blockers of CRF-binding protein–CRF-R2 complex – cell-based, uHTS hits, 384-well, dose response (AID 651639); assay type: functional, Homo sapiens; conditions: read-out: IC50_Mean
Cytochrome P450 2D6 = Cytochrome P450 2D6 (Homo sapiens, UniProt P10635);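 further: CYP2D6 member of a cytochrome P450 panel assay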
fMet-Leu-Phe receptor = biological target: T2, fMet-Leu-Phe receptor (Homo sapiens, UniProt P21462); assay: formyl peptide receptor binders – dose response (AID 519); assay type: functional
T2 sequence (P21462 whole entry): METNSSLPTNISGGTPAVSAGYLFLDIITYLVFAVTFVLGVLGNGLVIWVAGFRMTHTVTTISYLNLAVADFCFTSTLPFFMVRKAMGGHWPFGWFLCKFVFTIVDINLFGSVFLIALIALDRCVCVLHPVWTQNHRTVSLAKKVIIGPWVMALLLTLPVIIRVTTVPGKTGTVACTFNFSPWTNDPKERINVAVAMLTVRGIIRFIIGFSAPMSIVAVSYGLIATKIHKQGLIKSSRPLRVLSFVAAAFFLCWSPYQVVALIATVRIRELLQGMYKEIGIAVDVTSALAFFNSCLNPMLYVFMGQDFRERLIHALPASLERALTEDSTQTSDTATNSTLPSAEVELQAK

Beta-galactosidase = Beta-galactosidase (Escherichia coli, UniProt Q8VNN2); assay: Dose response counterscreen for EBI2 assay utilizing the enzyme, b-galactosidase.; assay type: functional
Albumin = Albumin (Bos taurus, UniProt P02769); assay: Counterscreen for inhibitors of T-cell receptor (TCR)-CD3 interaction: Fluorescence-based biochemical high throughput dose response assay to identify inhibitors of T-cell receptor (TCR)-CD3 interaction using a TAMRA-labeled BSA probe.; assay type: functional
[4] = biological target: T3, Trace amine-associated receptor 1 (Homo sapiens, UniProt Q96RJ0); assay: Fluorescence-based cell-based high throughput dose response assay to identify agonists of the human trace amine associated receptor 1 (TAAR1).; assay type: functional
T3 sequence (Q96RJ0 whole entry): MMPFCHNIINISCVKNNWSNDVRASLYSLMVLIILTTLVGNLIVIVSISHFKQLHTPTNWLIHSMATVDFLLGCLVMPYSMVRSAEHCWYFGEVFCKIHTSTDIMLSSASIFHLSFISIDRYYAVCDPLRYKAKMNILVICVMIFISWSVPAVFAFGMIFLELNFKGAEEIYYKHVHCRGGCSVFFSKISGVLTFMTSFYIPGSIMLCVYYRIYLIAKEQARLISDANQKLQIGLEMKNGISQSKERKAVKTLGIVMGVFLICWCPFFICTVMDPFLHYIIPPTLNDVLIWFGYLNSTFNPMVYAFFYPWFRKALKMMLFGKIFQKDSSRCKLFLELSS

cells [5] = assay type: functional, cell-based
[6] = biological target: T3, Trace amine-associated receptor 1; assay: Counterscreen for agonists of the human trace amine associated receptor 1 (hTAAR1): Fluorescence-based cell-based high throughput dose response assay to identify hTAAR1 agonist that also desensitize TAAR1 receptor response.; assay type: functional
cells [7] = assay type: functional, cell-based; remark: listed apart in the source
[8] = biological target: T4, Methionyl-tRNA synthetase, putative (Trypanosoma brucei brucei, UniProt Q38C91); assay type: functional, Trypanosoma brucei brucei strain 927/4 GUTat10.1;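 further: Read-out by fluorescence polarization, run as a confirmatory high-throughput counterscreen; potency of MetRS inhibitors measured by reduced AMP formation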
T4 sequence (Q38C91 whole entry): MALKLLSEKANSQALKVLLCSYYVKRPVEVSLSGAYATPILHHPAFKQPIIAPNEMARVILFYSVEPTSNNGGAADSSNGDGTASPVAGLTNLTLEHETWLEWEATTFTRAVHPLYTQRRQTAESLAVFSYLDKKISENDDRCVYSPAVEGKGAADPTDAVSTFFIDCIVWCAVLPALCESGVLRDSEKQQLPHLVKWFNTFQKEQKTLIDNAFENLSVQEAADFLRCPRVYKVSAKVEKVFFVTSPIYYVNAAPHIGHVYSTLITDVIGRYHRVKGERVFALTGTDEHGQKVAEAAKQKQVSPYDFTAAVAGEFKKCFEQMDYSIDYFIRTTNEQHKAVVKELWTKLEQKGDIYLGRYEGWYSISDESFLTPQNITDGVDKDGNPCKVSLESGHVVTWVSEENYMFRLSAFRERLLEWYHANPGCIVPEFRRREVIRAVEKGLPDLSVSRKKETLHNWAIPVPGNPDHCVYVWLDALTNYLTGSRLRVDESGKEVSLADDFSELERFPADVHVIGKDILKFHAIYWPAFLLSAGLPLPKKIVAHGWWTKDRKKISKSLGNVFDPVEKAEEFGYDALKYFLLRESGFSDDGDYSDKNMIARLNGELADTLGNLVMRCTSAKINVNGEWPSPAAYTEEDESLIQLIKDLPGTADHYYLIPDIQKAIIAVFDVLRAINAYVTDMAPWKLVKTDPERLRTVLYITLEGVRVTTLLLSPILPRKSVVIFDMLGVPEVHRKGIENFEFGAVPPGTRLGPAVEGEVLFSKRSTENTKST

[9] = Counterscreen for inhibitors of Trypanosoma brucei methionyl tRNA synthetase (MetRS): Luminescence-based cell-based high throughput dose response assay to identify compounds that are cytotoxic to Jurkat human T lymphocyte cells.; assay type: functional
H9c2 = assay: cells; assay type: functional, cell-based; conditions: Rattus norvegicus, H9c2, Myocardium
[10] = potency of ADAM10 substrate cleavage blockers – biochemical, QFRET, dose response (AID 743254);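 further: ADAM10 enzyme with the DM2 quenched FRET peptide as substrate; EDANS fluorescence gain as the protease cuts the substrate; inhibitor potency against ADAM10 proteolytic activity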
[11] = biological target: Disintegrin and metalloproteinase domain-containing protein 17 (Homo sapiens, UniProt P78536); assay: inhibition of ADAM17 substrate cleavage – biochemical, quenched FRET substrate, counter-screen for ADAM10 exosite inhibitor project, dose response (AID 743253)
[12] = THP-1 cell cytotoxicity, dose response, cytotoxicity control for non-replicating M. tuberculosis project (AID 489025); assay type: functional
[13] = system: Streptococcus sp. 'group A'; assay: Streptococcus pyogenes SK(-)GAS viability under kanamycin – luminescence, BacTiterGlo, confirmation, counter-screen for streptokinase expression inhibitor project, dose response (AID 1900); assay type: functional, organism-based
Nonstructural protein 1 = Nonstructural protein 1 (Influenza A virus, UniProt Q194T2); assay type: functional, Influenza A virus (A/California/07/2009(H1N1))
Streptococcus = assay: GAS UMAA2166 growth inhibition – luminescence, BacTiterGlo, counter-screen for streptokinase expression inhibitor project, dose response (AID 1915); assay type: functional, organism-based;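 further: potency for reduction of bacterial viability or growth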
[14] = viability loss in THP-1 monocytes – THP-1 cells, cytotoxicity control for Vif-APOBEC3G degradation inhibitor project, dose response (AID 1117359); assay type: functional; conditions: THP-1
[15] = viability of uninfected HEp-2 cells – cell-based, HTS, cytotoxicity control for RSV inhibitor project, dose response (AID 2410); assay type: functional; conditions: human respiratory syncytial virus
[16] = viability of PTEN-deleted HCT116 cells – cell-based, HCT116 PTEN knockout, dose response (AID 1047); assay type: functional;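 further: HCT116 colon tumor cells with PTEN knocked out; cells exposed to compound for 60 hours before readout; potency for loss of cell viability measured by luminescence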
[17] = viability of HCT116 lacking mutant beta-catenin – cell-based, human colon tumor, dose response (AID 1045); assay type: functional;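 further: HCT116 colon tumor cells with beta catenin knocked out; cells exposed to compound for 60 hours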
HEK293 = assay: EBV LMP1 TES2 canonical NF-kB signalling blockers – cell-based, HEK293, luciferase, cherry-pick, dose response (AID 588343); assay type: functional; conditions: Homo sapiens

Beta-galactosidase, sequence (Q8VNN2 whole entry): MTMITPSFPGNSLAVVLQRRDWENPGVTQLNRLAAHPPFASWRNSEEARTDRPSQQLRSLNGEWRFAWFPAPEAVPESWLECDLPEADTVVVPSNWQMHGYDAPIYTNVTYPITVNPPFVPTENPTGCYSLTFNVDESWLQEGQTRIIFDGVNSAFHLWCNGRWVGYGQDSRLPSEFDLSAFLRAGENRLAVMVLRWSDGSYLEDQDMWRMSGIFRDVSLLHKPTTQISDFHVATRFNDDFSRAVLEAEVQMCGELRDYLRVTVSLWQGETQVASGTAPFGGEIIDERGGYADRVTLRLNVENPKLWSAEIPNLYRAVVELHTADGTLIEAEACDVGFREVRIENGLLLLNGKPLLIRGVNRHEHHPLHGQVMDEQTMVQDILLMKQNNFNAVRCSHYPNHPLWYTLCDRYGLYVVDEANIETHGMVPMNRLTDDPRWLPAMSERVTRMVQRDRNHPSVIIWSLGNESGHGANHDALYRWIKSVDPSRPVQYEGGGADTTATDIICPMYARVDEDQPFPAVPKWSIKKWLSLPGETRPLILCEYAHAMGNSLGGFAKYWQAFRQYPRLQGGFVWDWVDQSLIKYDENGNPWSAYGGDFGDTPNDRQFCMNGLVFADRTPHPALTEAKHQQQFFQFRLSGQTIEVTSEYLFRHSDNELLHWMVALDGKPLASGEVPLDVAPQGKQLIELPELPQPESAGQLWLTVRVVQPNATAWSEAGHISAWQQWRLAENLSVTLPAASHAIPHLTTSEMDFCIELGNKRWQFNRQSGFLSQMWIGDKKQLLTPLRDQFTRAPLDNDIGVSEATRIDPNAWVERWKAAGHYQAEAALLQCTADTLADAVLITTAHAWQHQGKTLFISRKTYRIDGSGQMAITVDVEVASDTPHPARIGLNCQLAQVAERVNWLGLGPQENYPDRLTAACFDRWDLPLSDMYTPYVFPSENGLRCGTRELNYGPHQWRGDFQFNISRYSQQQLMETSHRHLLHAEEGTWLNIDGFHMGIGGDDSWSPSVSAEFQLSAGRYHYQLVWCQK
Albumin, sequence (P02769 whole entry): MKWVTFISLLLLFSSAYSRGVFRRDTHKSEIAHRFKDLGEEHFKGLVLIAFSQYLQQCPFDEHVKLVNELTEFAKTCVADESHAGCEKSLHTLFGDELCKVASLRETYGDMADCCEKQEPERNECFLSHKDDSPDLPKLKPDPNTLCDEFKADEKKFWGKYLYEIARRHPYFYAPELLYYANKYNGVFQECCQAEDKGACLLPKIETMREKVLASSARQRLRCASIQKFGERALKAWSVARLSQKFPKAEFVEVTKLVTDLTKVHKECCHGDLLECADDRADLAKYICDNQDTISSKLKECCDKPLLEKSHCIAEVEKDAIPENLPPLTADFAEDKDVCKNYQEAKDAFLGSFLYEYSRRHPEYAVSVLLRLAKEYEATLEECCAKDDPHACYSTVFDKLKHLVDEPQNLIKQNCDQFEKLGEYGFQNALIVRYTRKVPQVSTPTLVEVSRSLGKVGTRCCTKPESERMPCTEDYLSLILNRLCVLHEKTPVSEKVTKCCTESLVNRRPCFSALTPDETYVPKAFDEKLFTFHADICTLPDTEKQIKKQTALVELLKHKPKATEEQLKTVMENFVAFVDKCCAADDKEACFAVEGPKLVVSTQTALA
Disintegrin and metalloproteinase domain-containing protein 17, sequence (P78536 whole entry, the tested form may be a part): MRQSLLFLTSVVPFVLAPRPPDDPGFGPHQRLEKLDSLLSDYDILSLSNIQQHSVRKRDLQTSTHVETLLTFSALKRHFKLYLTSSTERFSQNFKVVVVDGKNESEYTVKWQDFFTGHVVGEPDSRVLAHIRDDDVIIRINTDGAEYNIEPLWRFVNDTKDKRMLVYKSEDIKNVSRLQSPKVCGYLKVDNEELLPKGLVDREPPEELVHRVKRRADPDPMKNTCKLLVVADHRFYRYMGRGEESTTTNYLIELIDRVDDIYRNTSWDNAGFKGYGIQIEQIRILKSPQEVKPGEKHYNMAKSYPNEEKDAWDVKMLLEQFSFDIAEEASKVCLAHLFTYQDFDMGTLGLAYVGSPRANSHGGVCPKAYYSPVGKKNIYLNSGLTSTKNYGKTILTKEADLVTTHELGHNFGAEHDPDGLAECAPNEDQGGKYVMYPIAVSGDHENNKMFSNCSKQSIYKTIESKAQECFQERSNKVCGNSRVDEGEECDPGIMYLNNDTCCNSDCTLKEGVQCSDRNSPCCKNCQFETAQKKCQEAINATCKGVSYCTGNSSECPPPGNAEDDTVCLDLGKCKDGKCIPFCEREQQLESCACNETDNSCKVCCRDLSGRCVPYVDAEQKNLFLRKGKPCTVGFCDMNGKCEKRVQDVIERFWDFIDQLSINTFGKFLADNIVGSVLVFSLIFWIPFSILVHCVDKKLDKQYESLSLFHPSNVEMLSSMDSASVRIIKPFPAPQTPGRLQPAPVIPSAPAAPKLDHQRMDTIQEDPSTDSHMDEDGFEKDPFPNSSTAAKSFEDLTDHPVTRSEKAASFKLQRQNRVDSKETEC
Cytochrome P450 2D6, sequence (P10635 whole entry): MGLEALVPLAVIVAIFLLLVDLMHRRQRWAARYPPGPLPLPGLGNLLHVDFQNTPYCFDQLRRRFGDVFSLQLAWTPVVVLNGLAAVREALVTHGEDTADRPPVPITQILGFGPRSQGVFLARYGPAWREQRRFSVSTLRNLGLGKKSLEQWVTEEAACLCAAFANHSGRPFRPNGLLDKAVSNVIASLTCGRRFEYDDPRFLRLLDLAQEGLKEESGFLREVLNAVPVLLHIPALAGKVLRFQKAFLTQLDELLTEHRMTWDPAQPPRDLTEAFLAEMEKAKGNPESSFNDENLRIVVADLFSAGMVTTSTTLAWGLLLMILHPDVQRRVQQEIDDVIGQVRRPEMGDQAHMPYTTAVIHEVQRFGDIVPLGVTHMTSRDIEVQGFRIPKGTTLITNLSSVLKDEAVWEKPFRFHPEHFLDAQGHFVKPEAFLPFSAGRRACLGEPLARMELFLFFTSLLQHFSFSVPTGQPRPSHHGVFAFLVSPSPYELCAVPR
Nonstructural protein 1, sequence (Q194T2 whole entry): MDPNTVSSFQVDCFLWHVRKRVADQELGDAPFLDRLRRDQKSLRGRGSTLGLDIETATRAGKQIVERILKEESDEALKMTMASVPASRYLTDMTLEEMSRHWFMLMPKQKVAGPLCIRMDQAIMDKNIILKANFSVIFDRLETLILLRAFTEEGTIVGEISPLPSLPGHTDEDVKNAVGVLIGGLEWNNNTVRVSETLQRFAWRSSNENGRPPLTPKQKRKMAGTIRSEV

## Cc1c(CC(Cl)(Cl)Cl)c2c(n1O)CC(C)(C)CC2=O
[1]
  EC50: 15.9 µM (active)
[2]
  IC50: 2.98 µM (active)
[3]
  IC50: > 20 µM (inactive)

## O=C(CC(c1ccccc1)c1ccccc1O)NCc1ccccc1Cl (stereo not given)
[1]
  EC50: > 53 µM (inactive)
[2]
  IC50: 2.7 µM (active)
[3]
  IC50: > 20 µM (inactive)

## Cc1ccc(Cl)cc1N1CCN(C(=O)Cc2c(C(=O)O)[nH]c3ccccc23)CC1
[1]
  EC50: > 53 µM (inactive)
[2]
  IC50: 33.5 µM (active)
[3]
  IC50: > 20 µM (inactive)

## COc1ccc(-c2cc(C(F)(F)F)nc(NC3CCCC3)n2)cc1OC
Cytochrome P450 2D6
  AC50: 20 µM (inconclusive)
fMet-Leu-Phe receptor
  Ki: > 66.7 µM (inactive)

## O=C(Nc1ccc(Cl)cc1)N1CCC(c2ccccc2)C1 (stereo not given)
Beta-galactosidase
  IC50: > 80 µM (inactive)

## CCc1ccccc1NC(=O)NNC(=O)c1ccc2ccccc2c1O
Albumin
  IC50: > 94.1 µM (inactive)

## NCCc1nc(-c2ccccc2)cs1
[4]
  EC50: 4.72 µM (active)
Cells [5]
  EC50: > 29.9 µM (inactive)
[6]
  IC50: > 29.9 µM (inactive)
Cells [7]
  IC50: > 29.9 µM (inactive)

## COCCCN1C(=O)C(O)=C(C(=O)c2ccc3c(c2)CC(C)O3)C1c1cccnc1 (stereo not given)
fMet-Leu-Phe receptor
  Ki: > 66.7 µM (inactive)

## O=C(Nc1ccccc1)Nc1ccc(S(=O)(=O)N2CCCCC2)cc1
[8]
  IC50: 26.9 µM (inactive)
[9]
  IC50: 47.5 µM (inactive)

## O=C(Cn1nc(C(=O)O)c2ccccc2c1=O)c1c[nH]c2ccccc12
H9c2
  IC50: > 79 µM (inactive)
Beta-galactosidase
  IC50: > 80 µM (inactive)

## CCOc1ccc(CCN2C(=S)N([C@@H](Cc3ccc(O)cc3)CN3CCC[C@@H]3CN3C(=S)NC[C@@H]3CC(C)C)C[C@@H]2Cc2ccccc2)cc1
[10]
  IC50: > 69.5 µM (inactive)
[11]
  IC50: > 69.5 µM (inactive)

## S=C1SCN(CCc2ccccc2)CN1CCc1ccccc1
[4]
  EC50: 2.11 µM (active)
Cells [5]
  EC50: > 29.9 µM (inactive)
[6]
  IC50: 3.35 µM (active)
Cells [7]
  IC50: > 29.9 µM (inactive)

## OC(c1ccccc1)(c1nc(-c2cccc(C(F)(F)F)c2)cs1)C(F)(F)F (stereo not given)
[10]
  IC50: 11.2 µM (inactive)
[11]
  IC50: > 69.5 µM (inactive)

## CCc1nc2ccc(C(=O)Nc3cccc(OC)c3)cn2c1N(CC)Cc1cccc(Br)c1
[10]
  IC50: > 69.5 µM (inactive)
[11]
  IC50: > 69.5 µM (inactive)

## COc1ccc(C(=O)C=CNNC(=O)c2ccc(Cl)cc2)cc1
Albumin
  IC50: > 94.1 µM (inactive)
[12]
  CC50: 15.6 µM (active)

## O=C(N/N=C/c1cc([N+](=O)[O-])ccc1O)c1cccc(N2CCCC2=O)c1
[13]
  EC50: 935 nM (active)
Nonstructural protein 1
  IC50: 6.59 µM (active)
Streptococcus
  EC50: 1.9 µM (active)
Albumin
  IC50: > 94.1 µM (inactive)

## OC[C@@H]1CN(Cc2cccc(C(F)(F)F)c2)C[C@H](n2cnc3c(NC4CC4)ncnc32)O1
Beta-galactosidase
  IC50: > 80 µM (inactive)

## CN(C)c1ccc(/C=N/CC2COc3ccccc3O2)cc1 (stereo not given)
[4]
  EC50: 4.25 µM (active)
Cells [5]
  EC50: > 29.9 µM (inactive)
[6]
  IC50: 14.3 µM (inactive)
Cells [7]
  IC50: > 29.9 µM (inactive)

## Nc1c(S(=O)(=O)c2ccccc2)c2nc3ccccc3nc2n1/N=C/c1ccco1
[14]
  CC50: > 40 µM (active)
Beta-galactosidase
  IC50: > 80 µM (inactive)

## CCOC(=O)C1=C(C)N(Cc2ccccc2)C(=O)NC1c1ccccc1OS(=O)(=O)c1ccccc1[N+](=O)[O-] (stereo not given)
[15]
  CC50: 5.56 µM (active)
[10]
  IC50: > 69.5 µM (inactive)
[11]
  IC50: > 69.5 µM (inactive)

## O=C(CCN1CCC(c2ccccc2)C1)c1ccc2c(c1)OCCO2 (stereo not given) [PROROXAN HYDROCHLORIDE]
[16]
  EC50: 36.3 µM (active)
[4]
  EC50: 0.21 µM (active)
Cells [5]
  EC50: > 29.9 µM (inactive)
[17]
  EC50: 34.3 µM (active)
[6]
  IC50: 1.46 µM (active)
Cells [7]
  IC50: > 29.9 µM (inactive)
HEK293
  AC50: 76.8 µM (active)
